In ChEMBL document CHEMBL1208716, “Ceratinadins A-C, new bromotyrosine alkaloids from an Okinawan marine sponge Pseudoceratina sp” (2010):
Values after ≈ are worked out from the molar mass of the structure shown.

Assays:
[1] = test system: Cryptococcus neoformans; experiment: Antifungal activity against Cryptococcus neoformans; assay type: functional
[2] = test system: Candida albicans; experiment: Antifungal activity against Candida albicans; assay type: functional

SMILES	MIC [1]	MIC [2]
COC1=C(Br)[C@H](O)[C@@]2(C=C1Br)CC(C(=O)NCCc1[nH]c(=N)[nH]c1-c1cc(O)c3[nH]cc(O)c(=O)c3c1O)=NO2 [CERATINADIN B]	8 µg/mL (≈ 11.7 µM)	4 µg/mL (≈ 5.86 µM)
N=c1[nH]cc(CCNC(=O)C2=NO[C@]3(C=C(Br)C(=O)[C@@H](Br)[C@@H]3O)C2)[nH]1 [CERATINADIN C]	> 32 µg/mL	> 32 µg/mL
COC1=C(Br)[C@H](O)[C@@]2(C=C1Br)CC(C(=O)NCCc1cn(-c3cc(O)c4[nH]cc(O)c(=O)c4c3O)cn1)=NO2 [CERATINADIN A]	4 µg/mL (≈ 5.99 µM)	2 µg/mL (≈ 3 µM)
